The values that follow come from EP4060021A1, “MIMETIC MICROBIOLOGICAL CULTURE MEDIUM AND USES THEREOF” (BIOFILM PHARMA, priority 2021, dated 2022).

For experiment [1], the system named is souches de S. aureus issues de prélèvements de plaies du pied infectées chez des patients diabétiques. The experiment in a line: Antibiotic susceptibility test (MIC, 96-well microplate, OD 600 nm) in wound medium of the invention (MP). In kind it is cell-based. An excerpt: (§1) • La Figure 1 représente des courbes de croissance de bactéries en fonction du milieu de culture. Sur cette figure, les ordonnées correspondent au logarithme d'unités formant colonie par millilitre de milieu de culture (Log UFC/ml) et les abscisses, au temps en heure (H). La Figure 1A représente les courbes correspondant à la croissance de 2 souches de S. aureus, Newman (gauche) et SAC1 (droite), dans le milieu BHI (courbe avec indicateurs ronds) et un exemple de milieu selon l'invention (MP) (courbe avec indicateurs carrés). La Figure 1B représente les courbes correspondant à la croissance de 2 souches de P. aeruginosa, PAO1 (gauche) et PAC1 (droite), dans le milieu BHI (courbe avec indicateurs ronds) et un exemple de milieu selon l'invention (MP) (courbe avec indicateurs carrés). La Figure 1C représente les courbes correspondant à la croissance de 2 souches cliniques S. aureus SAC1 et P. aeruginosa PAC1, en coculture dans le milieu BHI (P. aeruginosa BHI ou S. aureus BHI) et un exemple de milieu selon l'invention (MP) (P. aeruginosa MP ou S. aureus MP). La mesure de différence significative, réalisée par le test de Student, entre les valeurs d'UFC/mL est exprimée, soit par (***) qui correspond à une p-value <0,001, soit par (**) qui correspond à une p-value <0,01. • La Figure 2 représente les résultats obtenus d'une détermination de l'adhésion et de la formation de biofilm par dénombrement à 24h. Sur cette figure, les ordonnées correspondent au logarithme d'unités formant colonie par millilitre de milieu de culture (Log UFC/ml). La Figure 2A représente un histogramme ou diagramme en bâton du nombre de bactéries dénombrées suite à des cultures séparées de souche S. aureus Newman (Newman), S. aureus SAC1 (SAC 1), P. aeruginosa PAO1 (PAO1) ou P. aeruginosa PAC1 (PAC1), pendant 24H dans un milieu BHI (BHI) (bâtons noirs) ou dans un exemple de milieu selon l'invention (MP) (bâtons gris). La Figure 2B montre sous forme d'histogramme le nombre de bactéries dénombrées suite à des co-cultures des souches de référence S. aureus Newman et P. aeruginosa PAO1 (PAO1/Newman), ainsi que du couple de souches cliniques S. aureus SAC1 et P. aeruginosa PAC1 (PAC 1/SAC1), pendant 24H dans un milieu BHI (BHI) (bâtons noirs) ou dans un exemple de milieu selon l'invention (MP) (bâtons gris). La mesure de différence significative, réalisée par le test de Student, entre les valeurs d'UFC est exprimée, soit par (***) qui correspond à une p-value <0,001, soit par (**) qui correspond à une p-value <0,01. • La Figure 3 représente les résultats obtenus d'une détermination de sensibilité à des antibiotiques de souches cliniques de S. aureus issues d'infections de plaies du pied chez le diabétique. Les données cliniques, anonymisées, nécessaires à l'interprétation des résultats, consistaient en l'antibiothérapie donnée au patient, ainsi que la qualification par les médecins hospitaliers d'un succès ou échec thérapeutique. La définition de succès ou échec thérapeutique est définie comme suit. Le patient commence et suit l'antibiothérapie prescrite et un deuxième prélèvement microbiologique est effectué lors du dernier jour de traitement de la 1ère antibiothérapie (± 2 jours). Ce prélèvement est utilisé pour déterminer la présence/absence du pathogène ciblé par l'antibiothérapie, S. aureus. Si ce prélèvement a montré la persistance d'un S. aureus, l'antibiothérapie est en échec. A l'inverse, en cas d'absence de S. aureus, l'antibiothérapie est associée à un succès thérapeutique. Les antibiogrammes ont été réalisés classiquement sur une durée de 18h ± 2h en accord avec les recommandations de l'EUCAST. Une gamme de l'antibiotique à tester a été réalisée. • La Figure 3A montre sous forme d'histogramme les résultats des CMI déduites d'antibiogrammes sur 11 souches testées en présence d'amoxicilline / clavulanate de potassium (commercialisé par exemple sous le nom d'Augmentin (marque déposée)).

For experiment [2] the test system is unchanged. The experiment in a line: Antibiotic susceptibility test (MIC, 96-well microplate, OD 600 nm) in Mueller-Hinton medium (MH). In kind it is cell-based. Details: key to Classification (S) ou (R) en MH: S (sensible); R (résistante).
Excerpt: as §1

Setting [3] is: souche associée à un succès thérapeutique.

As for cotrimoxazole, the “CMI dans un exemple de milieu selon l'invention (MP)” value in experiment [1] (3 souches associées à un échec thérapeutique) turned out to be 16 mg/L. Moreover, the “CMI en milieu plaie MP” value in experiment [1] (souche C01P0 01) is listed as 16 mg/L; in experiment [1] (souche C01P0 11) it was 8 mg/L; in experiment [1] (souche C03P0 02) it was 16 mg/L; in experiment [1] (souche C03P0 07) it was 16 mg/L. For the same substance, the “Classification (S) ou (R) en MP” value is “(R) (valeur de CMI mesurée dans l'exemple de milieu selon l'invention supérieure au seuil et peuvent être classifiées comme résistantes (noté R dans le tableau 5B))” in experiment [1] (souche C01P0 01), “(S) (avantageusement inférieur au seuil et peut être classifiée comme sensible (noté S dans le tableau 5B))” in experiment [1] (souche C01P0 11), “(R) (valeur de CMI mesurée dans l'exemple de milieu selon l'invention supérieure au seuil et peuvent être classifiées comme résistantes (noté R dans le tableau 5B))” in experiment [1] (souche C03P0 02) and “(R) (valeur de CMI mesurée dans l'exemple de milieu selon l'invention supérieure au seuil et peuvent être classifiées comme résistantes (noté R dans le tableau 5B))” in experiment [1] (souche C03P0 07). In addition, the “CMI mesurée dans un exemple de milieu selon l'invention (MP)” value in experiment [1] (setting [3]) is on record as 8 mg/L. Further, the “CMI en milieu MH” value in experiment [2] (souche C01P0 01) is 0,5 mg/L; in experiment [2] (souche C01P0 11), 4 mg/L; in experiment [2] (souche C03P0 02), 1 mg/L; in experiment [2] (souche C03P0 07) it was 1 mg/L. For the same substance, the “Classification (S) ou (R) en MH” value in experiment [2] (souche C01P0 01), in experiment [2] (souche C01P0 11), in experiment [2] (souche C03P0 02) and in experiment [2] (souche C03P0 07) was “(S)” throughout. Moreover, the “CMI dans le milieu MH” value in experiment [2] (setting [3]) amounted to 4 mg/L.
